Data taken from patent US20240109898A1, “SUBSTITUTED PYRAZOLO[1,5-A]PYRIMIDINE-7-AMINE DERIVATIVES, COMPOSITIONS AND PHARMACEUTICAL USES THEREOF” (SHANGHAI HAIYAN PHARMACEUTICAL TECHNOLOGY CO., LTD., priority 2021, published 2024).

Assays:
CDK9/CycT = CDK9/CycT (Homo sapiens (Human), UniProt P50750); test: LANCE Ultra kinase activity inhibition assay, CDK9/CycT; type: biochemical; settings: ATP 10 μM, highest compound concentration 1 μM
Protocol: (§1) In the following LANCE Ultra test methods, kinase reagents were purchased from Carna Bioscience, reaction substrates and detection reagents were purchased from PerkinElmer, and the remaining reagents were purchased from Thermo scientific.
The inhibiting effects on the kinase activity of CDK1/CycB (Carna bioscience, #04-102), CDK2/CycA (Carna bioscience, #04-103) and CDK9/CycT (Carna bioscience, #04-110) were determined by using LANCE Ultra method.
The kinase activity test was performed using a system (10 μL) containing the following components: substrate diluent prepared by mixing CDK kinase diluent, Ulight-Myelic basic protein (Perkin Elmer, #TRF-0109, hereinafter referred to as U-MBP) and ATP (Thermo scientific, #PV3227); and the compounds (i.e., analyte) prepared in the examples of the present disclosure. The assay for each kinase includes three test groups, i.e., a background group (Blank), a non-inhibition group (PC), and compound testing group (Test). The components included in each test group were as follows:
(§2) Working concentrations of the respective components of the Test groups in different kinase reactions were as follows.
(§3) Compounds: 10 mM of the compound to be tested was dissolved at room temperature and diluted with DMSO to gradient concentrations, followed by diluting with deionized water to prepare a 4× working solution of the compound, and the content of DMSO was 2%. The highest concentration of compound used in the CDK1 and CDK2 assays was 10 μM, and that in CDK9 assay was 1 μM.
1.33×reaction buffer: the components include 26.7 mM of MOPS, 6.67 mM of MgCl2, and 0.0133% Tween-20, which were stored in a 4° C. refrigerator and protected from light after preparation. Freshly prepared DTT was added to a final concentration of 5.33 mM before use.
(§4) The working concentration of DMSO in the reaction was 0.5%.
(§5) The above-mentioned components, after being mixed, were placed on a shaker and incubated at room temperature in the dark for 1 h. 10 μL of test solution was then added to all test groups (including Blank, PC and Test groups).
10 μL of test solution contains the following components: 16 mM of EDTA (Thermo scientific, #15575), 1 nM of phosphorylated U-MBP protein antibody (Perkin Elmer, #TRF-0201), and 1× detection damping fluid (Perkin Elmer, #CR97-100).
After the test solution was added, the solution was placed on a shaker and continually incubated at room temperature for 1 h in the dark. At the end of incubation, Victor X5 fluorescence microplate reader of Perkin Elmer was used to read the signal; the wavelength of excitation light was 320 nm, and the wavelengths of emission light were 615 nm and 665 nm. The inhibition rate was calculated as below.
1. For all groups, a value of 665 nm/615 nm (hereinafter referred to as Ratio) was calculated, and an inhibition rate was calculated based on the Ratio of each group;
(§6) 2. Inhibition rate=(PCRatio-TestRatio)/(PCRatio-BlankRatio)*100%; and
(§7) 3. XLFIT 5.0 software (IDBS, UK) was used to fit a graph by using the logarithmic value of the compound concentration as the X-axis and the inhibition rater as the Y-axis, and a four-parameter model was used to calculate the half inhibitory concentration IC50 of the compound.

[1] = In vivo pharmacokinetics in mice; settings: mouse, plasma, po, male ICR mice, intragastric 10 mg/kg; for AUC(0-t): read-out: Area under the oral curve AUC0-t; for Cmax: read-out: Oral maximum plasma concentration Cmax(ng/mL)
Protocol: To investigate the pharmacokinetic behaviors of the compounds according to the present disclosure in mice and evaluate the pharmacokinetic characteristics thereof, the plasma concentrations of the compounds according to the present disclosure in mice at different time points after intravenous injection and intragastric administration of the compounds were determined by LC/MS/MS.
Experimental Protocol: • Experimental animals: healthy adult male ICR mice (12 mice with body weight of 30-40 g, free water and diet for intravenous injection group, and fasted overnight for intragastric administration group, free water and diet after 4 hours of administration) were provided by Beijing Vital River Laboratory Animal Co. LTD; • Administration route and dosage: the ICR mice were administrated intravenously via the tail vein (2 mg/kg, 5% DMSO, pH 4.5 20% Captisol) and intragastrically (10 mg/kg, 5% DMSO, pH 4.5 20% Captisol).
Blood sample collection: prior to the administration, animals satisfying the experimental requirements were selected, weighed and marked. Before collecting blood samples, the mice were tied together, and the blood of each administrated mouse was collected at the respective scheduled time points (for the intravenous administration, the blood was collected at 0.083 h, 0.25 h, 0.5 h, 1 h, 2 h, 4 h, 6 h, 7.5 h, and 24 h after the administration, respectively, for a total of 9 time points; for the intragastric administration, the blood was collected at 0.083 h, 0.25 h, 0.5 h, 1 h, 2 h, 4 h, 6 h, 7.5 h, and 24 h after the administration, respectively, for a total of 9 time points), about 100 μL of blood was collected from orbit. The blood was transferred to a 1.5 mL tube, which was pre-filled with K2EDTA, centrifuged for 4 minutes (8000 rpm, 4° C.), and the plasma removed within 15 minutes, which all the steps were finished in 15 minutes after the collection of blood samples. All samples were stored in −20° C. refrigerator before sample analysis. The drug concentrations were determined using the LC/MS/MS method, the pharmacokinetic parameters of the compounds of some examples of the present disclosure in mice at the same dosage and administration routes were lists in Table 3: […]

[2] = tested on: MV4-11 acute myeloid leukemia xenografts; test: In vivo pharmacodynamic assay, MV4-11 subcutaneous xenograft; design: species or system BALB/c nude mice; settings: Table 5, oral, once a day
Protocol: In vivo pharmacodynamic assays were performed on (CDX)BALB/c nude mice implanted subcutaneously with MV4-11 acute myeloid leukemia […] xenografts derived from human tumor cell lines.
Experimental protocol: BALB/c nude mice, female, 6-10 weeks old, with weight of approximately 20-23 grams, were maintained in a specific pathogen-free environment, 5 mice in each cage, and 2 cages with 10 mice as one group. All the cages, bedding and water were disinfected before use. All animals had free access to a standard certified commercial laboratory diet. […] Each mouse was implanted subcutaneously with tumor cells (1×10^7 0.1 ml+Matrigel 0.1 ml) in the right flank for tumor growth. When the mean tumor volume reached approximately 165 mm^3, the tumors were randomly grouped according to body weight and tumor volume, and the administration of the compounds began. Test compounds were administered via oral gavage daily. Antitumor efficacy was determined by dividing the mean tumor volume increase of the animals treated with the compound by the mean tumor volume increase of untreated animals.
Tumor volumes were measured twice a week with two-dimensional calipers, and volumes were measured in cubic millimeters. Tumor volume TV=0.5a×b^2, where a represent a long diameter of the tumor and b represents a short diameter of the tumor.
Relative tumor proliferation rate T/C (%), i.e., a percentage value of relative tumor volume of treatment group to relative tumor volume of control group at a certain time point, can be calculated based on an equation of T/C %=TRTV/CRTV×100 (TRTV: mean RTV in treatment group; CRTV: mean RTV in solvent control group; RTV=Vt/V0, V0 being the tumor volume of the animal at the time of grouping, Vt being the tumor volume of the animal after treatment).
Body weight change (%) of tumor-bearing animals was calculated as follows:
(weight at measurement−weight at grouping)/weight at grouping×100.

CDK1/CycB = CDK1/CycB (Homo sapiens (Human), UniProt P06493); test: LANCE Ultra kinase activity inhibition assay, CDK1/CycB; type: biochemical; settings: ATP 4 μM, highest compound concentration 10 μM
Chain of CDK1/CycB (P06493 whole entry): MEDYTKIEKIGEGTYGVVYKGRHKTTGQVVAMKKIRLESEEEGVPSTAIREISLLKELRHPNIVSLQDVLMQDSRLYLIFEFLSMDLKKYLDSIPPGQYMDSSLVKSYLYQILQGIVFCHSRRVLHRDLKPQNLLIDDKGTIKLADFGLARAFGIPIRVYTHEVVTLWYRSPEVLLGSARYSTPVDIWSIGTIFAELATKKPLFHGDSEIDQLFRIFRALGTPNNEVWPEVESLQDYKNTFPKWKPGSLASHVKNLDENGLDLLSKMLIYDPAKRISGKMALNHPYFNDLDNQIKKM
Chain of CDK1/CycB (P14635 whole entry partner): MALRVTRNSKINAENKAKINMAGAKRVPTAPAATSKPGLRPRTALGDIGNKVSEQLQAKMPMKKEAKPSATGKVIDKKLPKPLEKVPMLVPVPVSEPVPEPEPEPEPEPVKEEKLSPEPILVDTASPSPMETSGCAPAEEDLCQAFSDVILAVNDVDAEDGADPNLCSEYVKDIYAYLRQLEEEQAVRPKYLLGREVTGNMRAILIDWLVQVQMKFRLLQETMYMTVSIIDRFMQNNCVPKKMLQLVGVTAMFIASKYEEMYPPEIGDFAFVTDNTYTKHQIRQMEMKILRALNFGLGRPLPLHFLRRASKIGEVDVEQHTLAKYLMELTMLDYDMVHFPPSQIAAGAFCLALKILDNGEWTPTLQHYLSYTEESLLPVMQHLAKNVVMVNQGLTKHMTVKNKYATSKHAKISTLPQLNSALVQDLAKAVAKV
Text: as §1
(§8) The assay for each kinase includes three test groups, i.e., a background group (Blank), a non-inhibition group (PC), and compound testing group (Test). The components included in each test group were as follows:
as §2, §3, §4, §5
(§9) After the test solution was added, the solution was placed on a shaker and continually incubated at room temperature for 1 h in the dark. […] The inhibition rate was calculated as below.
as §6, §7

CDK2/CycA = CDK2/CycA (Homo sapiens (Human), UniProt P24941); test: LANCE Ultra kinase activity inhibition assay, CDK2/CycA; type: biochemical; settings: ATP 10 μM, highest compound concentration 10 μM
Text: as §1, §8, §2, §3, §4, §5, §9, §6, §7

Chain of CDK9/CycT (P50750 whole entry): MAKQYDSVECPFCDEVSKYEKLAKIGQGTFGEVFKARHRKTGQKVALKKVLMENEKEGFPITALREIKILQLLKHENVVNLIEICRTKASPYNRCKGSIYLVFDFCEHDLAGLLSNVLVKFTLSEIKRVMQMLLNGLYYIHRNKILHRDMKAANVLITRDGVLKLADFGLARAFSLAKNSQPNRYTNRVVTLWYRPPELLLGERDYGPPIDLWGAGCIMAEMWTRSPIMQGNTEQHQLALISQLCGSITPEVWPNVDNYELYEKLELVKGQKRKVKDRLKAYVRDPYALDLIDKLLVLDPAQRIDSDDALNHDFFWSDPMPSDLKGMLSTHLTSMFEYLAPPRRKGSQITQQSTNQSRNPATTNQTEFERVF
Chain of CDK9/CycT (O60563 whole entry partner): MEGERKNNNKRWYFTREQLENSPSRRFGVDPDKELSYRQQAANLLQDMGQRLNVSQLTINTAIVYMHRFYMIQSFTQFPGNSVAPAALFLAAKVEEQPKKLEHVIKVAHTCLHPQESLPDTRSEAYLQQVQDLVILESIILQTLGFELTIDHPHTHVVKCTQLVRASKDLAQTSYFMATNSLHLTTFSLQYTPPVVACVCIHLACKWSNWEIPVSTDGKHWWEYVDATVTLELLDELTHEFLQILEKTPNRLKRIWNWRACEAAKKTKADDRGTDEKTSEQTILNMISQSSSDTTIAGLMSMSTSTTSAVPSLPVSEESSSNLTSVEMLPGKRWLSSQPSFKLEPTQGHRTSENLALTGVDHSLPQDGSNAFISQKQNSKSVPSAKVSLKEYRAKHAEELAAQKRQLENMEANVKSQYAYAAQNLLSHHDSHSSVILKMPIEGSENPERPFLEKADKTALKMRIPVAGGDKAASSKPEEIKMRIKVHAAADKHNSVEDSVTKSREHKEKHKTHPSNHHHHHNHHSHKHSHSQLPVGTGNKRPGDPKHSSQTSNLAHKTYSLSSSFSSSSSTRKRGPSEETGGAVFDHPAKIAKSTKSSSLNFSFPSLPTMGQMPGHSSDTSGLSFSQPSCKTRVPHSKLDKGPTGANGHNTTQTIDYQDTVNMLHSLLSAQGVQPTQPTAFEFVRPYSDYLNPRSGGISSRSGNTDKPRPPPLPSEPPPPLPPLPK

| IC50 (CDK9/CycT) [µM] | AUC(0-t) [1] [ng·h/mL] | Cmax [1] [ng/mL] | IC50 (CDK1/CycB) [µM] | IC50 (CDK2/CycA) [µM] | SMILES | Average tumor weight ([2]; 5 mpk) [g] | T/C(%) ([2]; 5 mpk) | Average tumor weight ([2]; 10 mpk) [g] | T/C(%) ([2]; 10 mpk) | Average tumor weight ([2]; 12.5 mpk) [g] | T/C(%) ([2]; 12.5 mpk) | Average tumor weight ([2]; 25 mpk) [g] | T/C(%) ([2]; 25 mpk) |
| --- | --- | --- | --- | --- | --- | --- | --- | --- | --- | --- | --- | --- | --- |
| 0.008 | 7860 | 740 | 1.04 | 1.55 | Cc1cnn2c(N[C@H]3CC[C@H](N)C3)cc(C(C3CC3)C3CC3)nc12 [Compound Z-9] |  |  |  |  |  |  |  |  |
| 0.013 | 6090 | 409 | 2.48 | 3.78 | C=CC(C)(C)c1cc(N[C@H]2CC[C@H](N)C2)n2ncc(Cl)c2n1 [Compound Z-56] |  |  |  |  |  |  |  |  |

Further lines, the compound ahead of its results:

| SMILES | IC50 (CDK9/CycT) [µM] | AUC(0-t) [1] [ng·h/mL] | Cmax [1] [ng/mL] | IC50 (CDK1/CycB) [µM] | IC50 (CDK2/CycA) [µM] | Average tumor weight ([2]; 5 mpk) [g] | T/C(%) ([2]; 5 mpk) | Average tumor weight ([2]; 10 mpk) [g] | T/C(%) ([2]; 10 mpk) | Average tumor weight ([2]; 12.5 mpk) [g] | T/C(%) ([2]; 12.5 mpk) | Average tumor weight ([2]; 25 mpk) [g] | T/C(%) ([2]; 25 mpk) |
| --- | --- | --- | --- | --- | --- | --- | --- | --- | --- | --- | --- | --- | --- |
| C[C@H](c1cc(N[C@H]2CC[C@H](N)C2)n2nccc2n1)C1CC1 [Compound Z-5-2] | 0.007 | 1700 | 690 |  |  | 0.72 | 59.25 | 0.04 | 3.45 |  |  |  |  |
| Cc1cnn2c(N[C@H]3CC[C@H](N)C3)cc([C@@H](C)C3CC3)nc12 [Compound Z-32-P2] | 0.056 | 9410 | 696 | 8.22 | 6.82 |  |  |  |  |  |  |  |  |
| C[C@H](c1cc(N[C@H]2C[C@H](N)C2)n2nccc2n1)C1CC1 [Compound Z-62-P1] | 0.01 | 2060 | 786 | 1.71 | 1.97 |  |  |  |  |  |  |  |  |
| CCC(CC)c1cc(N[C@H]2CC[C@H](N)C2)n2nccc2n1 [Compound D, reference compound] |  | 1190 | 433 |  |  |  |  |  |  | 0.43 | 35.91 | 0.04 | 2.90 |
